Experiment: Test for hygroscopicity (hygroscopic weight gain)
Assay type: physicochemical
Settings: 25° C., relative humidity about 70%, about 5 g sample, sampling time 12 hours
Description: The tigecycline crystalline hydrates according to the invention can be stable for storage. A hygroscopicity test is conducted directed to a tigecycline hydrate sample and a tigecycline anhydride sample: about 5 g of the tigecycline anhydride and 5 g of the hydrate of the invention are taken, and they are placed in a dry and weight-constant surface vessel and precisely weighted. […] On the conditions of RH 75% and 30° C., the tigecycline crystalline hydrate is sealed in a vial for conducting a six-month acceleration stability test. According to the testing conditions of HPLC process of the tigecycline in relevant literatures: C18 (250 mm×4.6 mm, 5 μm) acetonitrile:phosphate buffer (1.29 g of citric acid and 2.76 g of anhydrous disodium hydrogen phosphate are dissolved in water and diluted to 1000 ml) (80:20) as the mobile phase; detection wavelength is 248 nm; the column temperature is room temperature; and the flowing rate is 1 ml/min. Under the conditions, the tigecycline contents and related substances are determined.
The tigecycline hydrates of the present invention may be stable for storage. Samples of tigecycline hydrates and anhydrides and amorphous tigecycline are used to conduct the test for hygroscopicity: respectively, about 5 g tigecycline anhydrides (obtained by drying tigecycline.0.5H2O hydrate prepared according to Example 1), about 5 g amorphous tigecycline (prepared by referring to the process as described in the reference document CN101367747A) and about 5 g the hydrates of the present invention are placed in a dry and constant weight watch glass, and the system is precisely weighed.

Row | SMILES | As compared to the sample time of 0 h, weight gains % [%]
1 | CN(C)c1cc(NC(=O)CNC(C)(C)C)c(O)c2c1C[C@H]1C[C@H]3[C@H](N(C)C)C(O)=C(C(N)=O)C(=O)[C@@]3(O)C(O)=C1C2=O.CN(C)c1cc(NC(=O)CNC(C)(C)C)c(O)c2c1C[C@H]1C[C@H]3[C@H](N(C)C)C(O)=C(C(N)=O)C(=O)[C@@]3(O)C(O)=C1C2=O.O [Tigecycline•0.5 H2O hydrate, Tigecycline.0.5H2O Hydrate] | 0.2
2 | CN(C)c1cc(NC(=O)CNC(C)(C)C)c(O)c2c1C[C@H]1C[C@H]3[C@H](N(C)C)C(O)=C(C(N)=O)C(=O)[C@@]3(O)C(O)=C1C2=O [Amorphous tigecyline, tigecycline] | 1.3
3 | CN(C)c1cc(NC(=O)CNC(C)(C)C)c(O)c2c1C[C@H]1C[C@H]3[C@H](N(C)C)C(O)=C(C(N)=O)C(=O)[C@@]3(O)C(O)=C1C2=O [Tigecycline anhydride] | 1.4
4 | CN(C)c1cc(NC(=O)CNC(C)(C)C)c(O)c2c1CC1CC3C(N(C)C)C(O)=C(C(N)=O)C(=O)C3(O)C(O)=C1C2=O.O.O (stereo not shown) [Tigecycline•2 H2O hydrate, Tigecycline.2H2O Hydrate] | 0.1

Source: patent US9475759B2, “Tigecycline crystalline hydrate and preparation method therefor and use thereof” (priority 2011, dated 2016)
